What was measured:
HCMV (strain AD169) [1] = experiment: Inhibition of HCMV replication, ELISA assay (Hs-68 cells, p28); type: cell-based, human cytomegalovirus; conditions: Group 1 Table 1; read-out: ELISA CMV EC50
Method: (§1) C) Inhibition of Human Cytomegalovirus (HCMV) replication
(§2) The effect of compounds on the replication of HCMV has been measured by using an ELISA-based assay (ELISA) and a plaque reduction assay (PRA).
(§3) Hs-68 cells (ATCC # CRL 1635) were seeded in 96 well microtiter plates at 10,000 cells/well in 100 μL of DMEM medium (Gibco Canada Inc.) supplemented with 10% fetal bovine serum (FBS, Gibco Canada Inc.). The plates were incubated for 3 days at 37° to allow the cells to reach 80-90% confluency prior to the assay.
The medium was removed from wells by aspiration. The cells then were infected at a multiplicity of infection (MOI) of 0.01 PFU/cell with 50 μL of HCMV (strain AD169, ATCC VR-538) in DMEM medium supplemented with 5% heat inactivated FBS (assay medium). The virus was allowed to adsorb to cells for 2 h at 37°. Following viral adsorption, the medium was removed from the wells by aspiration. The cells were washed twice with 200 μL of assay medium to remove unabsorbed virus. The cells were then incubated with or without 100 μL of appropriate concentrations of test reagent in assay medium. After 8 days of incubation at 37°, the extent of viral replication was determined by an ELISA assay which detects the late structural protein p28 of HCMV.
Eight days after infection, the medium was aspirated from the wells. Non-specific binding sites were blocked by adding 200 μL of phosphate buffered saline containing 1% (w/v) bovine serum albumin (blocking buffer) to each well and incubating the plates for 30 min at room temperature. After removal of the blocking buffer by aspiration, the cells were fixed with 100 μL of cold ethanol-acetone solution (95:5) per well. The plates were placed at −20° for 30 min. The plates were washed 4 times with phosphate buffered saline containing 0.05% (v/v) polyoxyethylene sorbitan monolaurate (Tween 20®). Thereafter, 100 μL of mAb UL99 (Advanced Biotechnologies Inc., #13-130-100) recognizing HCMV protein p28 was added to each wells and plates were incubated for 2 h at room temperature. The plates were washed four times with 200 μL of the above-noted phosphate buffered saline/Tween-20® solution. The cells were then incubated with 100 μL of sheep anti-mouse IgGγ horseradish peroxidase conjugated for 2 h at room temperature. The plates were then washed four times with 200 μL of above-noted phosphate buffered saline/Tween-20®solution. Thereafter, 100 μL of ortho phenylenediamine dihydrochloride (OPD, Gibco Canada Inc.) solution was added to each well and the plates were agitated on a microplate shaker for 30 min in the dark. Color development was monitored at 450 nm using a microplate spectrophotometer.
The SAS program was used to calculate the % inhibition of viral replication and to generate EC50 values.
The EC50 values obtained according to this assay method for certain thiazolylphenyl derivatives of this invention are listed in the following tables under the heading ELISA CMV.

HSV-1 strain F or KOS = experiment: Inhibition of herpes simplex virus (HSV-1) replication in cell culture (BHK-21 cells, glycoprotein C ELISA); type: cell-based; conditions: Group 1 Table 1
Method: B) Inhibition of Herpes Simplex Virus (HSV-1) Replication in Cell Culture
Assay: BHK-21 cells clone 13 (ATCC CCL10) were incubated for two days in 850 cm^2 roller bottles (2×10^7 cells/bottle) with α-MEM medium (Gibco Canada Inc., Burlington, Ontario, Canada) supplemented with 8% (v/v) fetal bovine serum (FBS, Gibco Canada, Inc.). The cells were trypsinized and then 3,000 cells in 100 μL of fresh medium were transferred into each well of a 96-well microtiter plate. The cells were incubated at 37° for a period of 3 days to reach a density of 50,000 cells per well. The cells were washed twice with 100 μL of α-MEM supplemented with 2% heat inactivated FBS and incubated for 1-2 hours in 100 μL of the same medium.
Thereafter, the cells were infected with HSV-1 strain F or KOS (multiplicity of infection=0.05 PFU/cell) in 50 μL of α-MEM supplemented with 2% heat inactivated FBS. Following one hour of virus absorption at 37°, the medium was removed and the cells were washed with α-MEM supplemented with 2% heat inactivated FBS (2×100 μL). The cells were incubated with or without 100 μL of the appropriate concentration of test reagent in α-MEM medium supplemented with 2% heat inactivated FBS. After 24 hours of incubation at 37°, the extent of viral replication was determined by an ELISA assay; for instance, the following assay that detects the late glycoprotein C of HSV-1.
Cells were fixed in the microtiter plate with 100 μL of 0.063% glutaraldehyde in phosphate buffered saline for 30 min at room temperature. The microtiter plate was then washed once with casein blocking solution and blocked with 200 μL of the same solution for one hour at room temperature. Thereafter, 100 μL of mAb C11 recognizing the glycoprotein C of HSV-1 (see E. Trybala et al., Journal of General Virology, 1994, 75, 743) was added to each well for two hours at room temperature. The plate was washed three times with phosphate buffered saline containing 0.05% polyoxyethylene (20) sorbitan monooleate. The cells were incubated with 100 μL of sheep anti-mouse IgG horseradish peroxidase for one hour at room temperature in the dark.
The plate was washed three times with 200 μL of the above-noted phosphate buffer saline preparation, and then once with 0.1 M sodium citrate (pH 4.5). Thereafter, 100 μL of orthophenylenediamine dihydrochloride (OPD, Gibco, Canada Inc.) was added to each well. The plate was agitated on a microplate shaker for 30 min in the dark. Color development was monitored at 450 nm using a microplate spectrophotometer.
SAS was used to calculate % inhibition of viral replication and to generate EC50 values.

HSV-1 helicase-primase = biological target: T1, HSV-1 helicase-primase (Human herpesvirus 1, UniProt P10189+P10236); experiment: HSV-1 DNA-dependent ATPase assay (inhibition of HSV-1 helicase-primase); type: biochemical; conditions: Group 1 Table 1
T1 construct: made in house; host or cells: Sf21 insect cells triply infected with recombinant baculoviruses
From the text: A) HSV-1 DNA-Dependent ATP Assay (an in Vitro Assay Based on the Inhibition of HSV-1 Helicase-primase).
a) Preparation of enzyme: HSV-1 helicase-primase holoenzyme was produced in triply infected Sf21 cells using recombinant baculoviruses expressing the UL5, UL8 and UL52 helicase-primase subunits, as described by S. Dracheva et al., J. Biol. Chem. 1995, 270, 14148. The crude enzyme was purified by ammonium sulfate precipitation, Source 15Q® chromatography and Sephacryl® S-300 HR gel filtration (both purification systems can be obtained from Pharmacia Biotech Inc., Montreal, Quebec, Canada), see S. Dracheva et al., supra.
b) Assay: The DNA-dependent ATPase assay, described by J. J. Crute et al., Nucleic Acids Res. 1988, 16, 6585, was modified and used to evaluate the capability of the compounds of Group 1-formula 1 to inhibit HSV-1 helicase-primase activity. The reaction mixtures (80 μL each) contained 40 mM 4-(2-hydroxyethyl)-1-piperazineethanesulfonic acid (HEPES, pH 7.5), 10% (v/v) glycerol, 5.5 mM MgCl2, 1 mM DL-dithiothreitol (DTT), 50 μg/mL acetylated bovine serum albumin, 3.3% (v/v) DMSO, 4 mM ATP, 25 μM single-stranded M13 DNA hybridized to double-tailed 68-mer oligonucleotide and 3 μg/mL HSV-1 helicase-primase. After incubation for 20 min at 34°, formation of inorganic phosphate from hydrolysis of ATP was monitored spectrophotometrically at 650 nm using acidic ammonium molybdate/malachite green reagent, P. A. Lanzetta et al., Anal. Biochem. 1979, 100, 95. DNA-dependent ATPase activity was calculated from the net absorbance change in the presence and absence of inhibition.

HCMV (strain AD169) [2] = experiment: Inhibition of HCMV replication, plaque reduction assay (PRA, Hs-68 cells); type: cell-based, human cytomegalovirus; conditions: Group 1 Table 1; read-out: PRA CMV EC50
Method: as §1, §2
as §3, with “( ATCC” for “(ATCC”, “12-well” for “96 well microtiter”, “83,000” for “10,000”, “1 mL” for “100 μL”
The medium was removed from the cells by aspiration. The cells were then infected with approximately 50 PFU of HCMV (strain AD169, ATCC VR-538) in DMEM medium supplemented with 5% inactivated FBS (assay medium). The virus was allowed to adsorb to cells for 2 h at 37°. Following viral adsorption, the medium was removed from the wells by aspiration. The cells were then incubated with or without 1 mL of appropriate concentrations of test reagent in assay medium. After 4 days of incubation at 37°, the medium was exchanged with fresh medium containing test compound and 4 days later the cells were fixed with 1% aqueous formaldehyde and stained with a 2% crystal violet solution in 20% ethanol in water. Microscopic plaques were counted using a stereomicroscope. Drug effects were calculated as a percent reduction in the number of plaques in the presence of each drug concentration compared to the number observed in the absence of drug. Ganciclovir was used as a positive control in all experiments.
The EC50 values obtained according to this assay for certain thiazolyl derivatives of this invention are listed in the following tables under the heading PRA CMV.

[3] = system: HSV-1 acyclovir-resistant mutant strain dlsptk; experiment: Acyclovir-resistant HSV-1 dlsptk cutaneous infection in immunodeficient nu/nu mice, oral; type: in vivo; conditions: 100 mg/kg/day oral, tid for 10 days (FIG. 3)
Method: (§4) Animals were cutaneously inoculated with 10^7 PFU of HSV-1 acyclovir resistant mutant viruses. The resulting cutaneous lesions were scored according to a subjective scoring system. The compound of Group 1 (Entry No. 29 in table 1) was administered orally (gavage) in an acidified vehicle (0.033 N aqueous HCl, tid for 10 days). Animals were similarly treated with acyclovir in 0.033 N aqueous HCl or only with the vehicle (0.033 N aqueous HCl). […] The dose-dependent effect of treatment with Entry No. 29 at 25 mg/kg/day (-♦-), 50 mg/kg/day (-▴-), 75 mg/kg/day (-□-), 100 mg/kg/day (-●-) or 125 mg/kg/day (-▪-), compared to treatment with vehicle alone (-∘-), is shown in FIG. 2. The ED50 of Entry No. 29 was about 60 mg/kg/day. Similar experiments were done using the HSV-1 acyclovir-resistant mutant strain dlsptk (FIGS. 3 and 4). […] The dose-dependent effect of treatment with Entry No. 29 at 25 mg/kg/day (-♦-), 50 mg/kg/day (▴-), 75 mg/kg/day (-□-), 100 mg/kg/day (-●-) or 125 mg/kg/day (-▪-), compared to treatment with vehicle alone (-∘-), is shown in FIG. 4. The acyclovir-resistant HSV-1 strains, PAA^r5 and dlsptk, have been described by P. A. Furman et al., J. Virol., 1981, 40, 936 and by D. M. Coen et al., Proc. Natl. Acad. Sci., 1989, 86, 4736, respectively.

[4] = system: HSV-1 acyclovir-resistant mutant strain PAA^r5; experiment: Acyclovir-resistant HSV-1 PAAr5 cutaneous infection in immunodeficient nu/nu mice, oral; type: in vivo; conditions: 100 mg/kg/day oral, tid for 10 days (FIG. 1)
Method: as §4

T1 sequence (P10189 whole entry): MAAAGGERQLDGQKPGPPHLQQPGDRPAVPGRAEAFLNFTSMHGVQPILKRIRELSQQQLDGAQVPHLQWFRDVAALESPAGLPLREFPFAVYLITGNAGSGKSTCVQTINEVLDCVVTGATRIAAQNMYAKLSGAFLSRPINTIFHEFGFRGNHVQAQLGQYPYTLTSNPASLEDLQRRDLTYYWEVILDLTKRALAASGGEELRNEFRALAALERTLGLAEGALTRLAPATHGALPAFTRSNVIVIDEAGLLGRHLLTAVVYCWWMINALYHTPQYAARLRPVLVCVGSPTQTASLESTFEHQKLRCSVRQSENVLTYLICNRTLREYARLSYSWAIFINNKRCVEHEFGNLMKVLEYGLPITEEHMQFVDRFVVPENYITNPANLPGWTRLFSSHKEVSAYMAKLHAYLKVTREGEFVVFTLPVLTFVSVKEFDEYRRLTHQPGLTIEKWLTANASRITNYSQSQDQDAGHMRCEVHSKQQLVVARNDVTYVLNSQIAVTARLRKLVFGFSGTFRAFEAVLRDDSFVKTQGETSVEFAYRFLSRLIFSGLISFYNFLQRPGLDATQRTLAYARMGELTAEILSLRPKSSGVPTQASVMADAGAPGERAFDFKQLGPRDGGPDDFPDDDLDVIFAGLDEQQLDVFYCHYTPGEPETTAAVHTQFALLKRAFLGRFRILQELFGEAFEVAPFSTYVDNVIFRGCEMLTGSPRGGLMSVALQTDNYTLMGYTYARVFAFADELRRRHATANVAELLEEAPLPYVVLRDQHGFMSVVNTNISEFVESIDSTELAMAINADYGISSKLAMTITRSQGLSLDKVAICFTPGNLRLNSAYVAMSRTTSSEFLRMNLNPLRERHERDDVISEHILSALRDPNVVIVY
T1 sequence (P10192 whole entry, further chain): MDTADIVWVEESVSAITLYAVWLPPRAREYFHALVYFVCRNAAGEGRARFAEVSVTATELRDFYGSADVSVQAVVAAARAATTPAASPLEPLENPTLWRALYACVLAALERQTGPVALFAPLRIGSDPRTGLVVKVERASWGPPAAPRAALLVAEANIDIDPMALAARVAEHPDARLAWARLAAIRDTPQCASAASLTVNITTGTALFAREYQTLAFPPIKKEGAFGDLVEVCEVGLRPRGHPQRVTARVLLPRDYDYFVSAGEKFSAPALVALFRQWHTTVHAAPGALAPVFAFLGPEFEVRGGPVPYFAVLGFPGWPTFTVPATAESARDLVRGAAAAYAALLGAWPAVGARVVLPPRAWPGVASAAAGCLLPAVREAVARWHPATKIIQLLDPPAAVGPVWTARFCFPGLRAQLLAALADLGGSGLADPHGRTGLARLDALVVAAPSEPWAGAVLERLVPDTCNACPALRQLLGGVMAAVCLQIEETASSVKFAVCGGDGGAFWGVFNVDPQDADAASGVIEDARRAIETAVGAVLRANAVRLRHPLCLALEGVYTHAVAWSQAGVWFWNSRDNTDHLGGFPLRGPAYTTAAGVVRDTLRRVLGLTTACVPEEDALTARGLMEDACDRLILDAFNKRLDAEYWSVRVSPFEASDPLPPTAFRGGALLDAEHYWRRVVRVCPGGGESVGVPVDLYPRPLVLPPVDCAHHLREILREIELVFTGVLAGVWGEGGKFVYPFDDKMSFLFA
T1 sequence (P10236 whole entry): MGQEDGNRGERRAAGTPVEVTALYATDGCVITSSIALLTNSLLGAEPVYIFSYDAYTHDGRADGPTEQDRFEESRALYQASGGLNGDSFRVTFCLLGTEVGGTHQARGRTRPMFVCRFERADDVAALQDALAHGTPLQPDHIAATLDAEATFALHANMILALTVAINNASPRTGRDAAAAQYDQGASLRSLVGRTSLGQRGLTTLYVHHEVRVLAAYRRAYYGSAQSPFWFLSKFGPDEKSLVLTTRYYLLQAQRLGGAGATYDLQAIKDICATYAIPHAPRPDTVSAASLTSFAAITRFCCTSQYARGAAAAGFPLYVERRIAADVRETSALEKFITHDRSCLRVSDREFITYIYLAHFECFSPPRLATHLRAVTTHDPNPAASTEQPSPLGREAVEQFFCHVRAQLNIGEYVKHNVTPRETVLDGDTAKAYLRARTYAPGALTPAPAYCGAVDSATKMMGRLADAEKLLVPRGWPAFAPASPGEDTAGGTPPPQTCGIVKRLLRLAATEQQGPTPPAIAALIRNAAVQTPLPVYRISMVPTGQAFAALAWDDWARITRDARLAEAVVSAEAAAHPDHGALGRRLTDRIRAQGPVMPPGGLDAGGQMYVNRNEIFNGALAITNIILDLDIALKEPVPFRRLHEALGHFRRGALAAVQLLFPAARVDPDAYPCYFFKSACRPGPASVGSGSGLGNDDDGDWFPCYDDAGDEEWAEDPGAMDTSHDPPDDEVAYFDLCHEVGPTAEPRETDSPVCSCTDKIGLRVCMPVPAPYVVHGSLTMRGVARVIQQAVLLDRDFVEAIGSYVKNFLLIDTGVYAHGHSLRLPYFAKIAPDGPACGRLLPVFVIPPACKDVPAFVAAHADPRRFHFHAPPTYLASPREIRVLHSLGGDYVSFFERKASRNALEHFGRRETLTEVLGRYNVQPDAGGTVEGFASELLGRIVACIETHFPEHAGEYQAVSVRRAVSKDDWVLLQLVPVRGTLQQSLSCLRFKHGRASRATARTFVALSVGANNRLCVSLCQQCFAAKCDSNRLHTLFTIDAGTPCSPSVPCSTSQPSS

| Compound | EC50 (HCMV (strain AD169) [1]) [nM] | EC50 (HSV-1 strain F or KOS) [nM] | IC50 (HSV-1 helicase-primase) [nM] | EC50 (HCMV (strain AD169) [2]) [µM] | effect on cutaneous lesions [3] | effect on cutaneous lesions [4] |
| --- | --- | --- | --- | --- | --- | --- |
| CC(c1ccccc1)N(CC(=O)Nc1ccc(-c2csc(N)n2)cc1)C(=O)C1CCCCC1 (centres unmarked) [Example 53] | 3200 | 3 | 38 | 12 |  |  |
| CC(c1ccccc1)N(CC(=O)Nc1ccc(-c2csc(N)n2)cc1)C(=O)C1CCCCC1 (centres unmarked) [Example 52] | 1300 | 13 | 87 | 6 |  |  |
| Nc1nc2c(ncn2COCCO)c(=O)[nH]1 [acyclovir] |  |  |  |  | no effect | no effect |
| Nc1nc(-c2ccc(NC(=O)CN(CC3CCCCC3)C(=O)c3cccnc3)cc2)cs1 [Example 64] | 750 | 1700 | 2500 | 20 |  |  |

— US6348477B1, “Anti-herpesvirus compounds and methods for identifying, making and using same” (Boehringer Ingelheim(Canada) Ltd., priority 1995, dated 2002)
